Assay results taken from patent US20260295137A1, “METHOD FOR REMOVING UREMIC TOXINS FROM BLOOD” (INSTITUT NATIONAL DE LA SANTÉ ET DE LA RECHERCHE MÉDICALE, priority 2023, published 2026).

Tests used:
human serum albumin [1] = target: T1, human serum albumin (Homo sapiens, UniProt P02768); experiment: Ultrafiltration competition assay: displacement of IS from HSA; assay type: binding; conditions: IS 250 μmol/L, HSA 500 μM; for free fraction of IS: displacer 3 mM, pH 7.40, median (IQR), baseline 10.0%; for concentration dependence of increase in free fraction of IS: displacer 1-3 mM
T1 construct: purchased Sigma-Aldrich (Saint Quentin Fallavier, France) A9511
T1 sequence (P02768 25-609): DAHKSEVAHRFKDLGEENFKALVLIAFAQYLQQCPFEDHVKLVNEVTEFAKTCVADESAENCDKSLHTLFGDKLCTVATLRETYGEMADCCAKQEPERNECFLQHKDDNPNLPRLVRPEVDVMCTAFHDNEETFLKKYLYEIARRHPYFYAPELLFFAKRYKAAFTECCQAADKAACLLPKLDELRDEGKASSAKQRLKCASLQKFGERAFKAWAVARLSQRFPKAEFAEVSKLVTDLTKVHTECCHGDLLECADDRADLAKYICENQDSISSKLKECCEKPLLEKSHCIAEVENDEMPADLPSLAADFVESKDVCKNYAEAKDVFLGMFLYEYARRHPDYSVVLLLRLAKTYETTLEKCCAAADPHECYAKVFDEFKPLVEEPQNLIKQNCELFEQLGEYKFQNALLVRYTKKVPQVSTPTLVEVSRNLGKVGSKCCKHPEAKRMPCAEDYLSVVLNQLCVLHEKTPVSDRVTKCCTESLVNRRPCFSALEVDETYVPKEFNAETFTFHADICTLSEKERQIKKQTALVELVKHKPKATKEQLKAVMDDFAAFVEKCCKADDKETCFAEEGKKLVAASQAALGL
Procedure: (§1) Control experiments were performed by adding the same volume of PBS instead of displacer. Then, 600 μL of samples were transferred in filtration devices (Corning®, Spin-X® UF Concentrator, Wiesbaden, Germany, MWCO: 5 kDa) and were centrifuged at 10,000 g for 5 min and 13,000 g for 15 min at room temperature. Ultrafiltrate was collected and free fraction of IS concentration were assayed fluorometrically as described thereafter.
(§2) Samples were diluted in PBS and fluorescence was measured with a Jasco FP-8300iRM Spectro-fluorometer (Jasco, Tokyo, Japan).
The free fraction of IS was measured using ultrafiltration experiments as described as described above.

In vitro hemolysis assay = assay type: cell-based, bovine; conditions: bovine, blood, 37° C., control 1.5%; for hemolysis at 4 h, 3000 µM: 3 mmol/L; for hemolysis at 4 h: MCFA 1-3 mmol/L (exact concentration not stated), median (IQR)
Procedure: (§3) One milliliter of fresh bovine blood was incubated for 4 h at 37° C. with 50 μL of a solution of medium chain fatty acids (final concentration: 0.25, 0.5, 1, 2 or 3 mmol/L) or PBS as control. A positive control of hemolysis (taken as 100% hemolysis) was produced by incubating 1 mL of bovine blood with 0.1% (v/v) of TRITON X100 followed by 2 freeze-thaw cycles. Samples were centrifuged 2 min at 9000×g and plasma was stored at −20° C. until free hemoglobin assay. Hemolysis was estimated by the free hemoglobin concentration. Hemoglobin concentration was determined spectrophotometrically as described by Fairbanks et al (Clin Chem. 1992 January; 38 (1): 132-40). Briefly, plasma samples were diluted to 1:10 in Na2CO3 9.4 mmol/L and absorbance was read at 415 nm, 450 nm and 700 nm on a microplate reader (Tecan, Lyon, France).
(§4) Free hemoglobin concentration was calculated using the following equation: […]
(§5) Wherein: • fHb is the concentration of free hemoglobin in g/L, • A is the absorbance at the specified wavelength, • d is the dilution factor.
(§6) Results were expressed as percent of total hemolysis.
(§7) Fresh bovine blood was incubated for 4 h (the full duration of a typical hemodialysis session) at 37° C. in presence of MCFAs (1-3 mmol/L) and dosage of free hemoglobin in plasma was taken as an index of hemolysis (FIG. 6A-D).

human serum albumin [2] = target: T1, human serum albumin; experiment: Ultrafiltration competition assay: displacement of p-CS from HSA; assay type: binding; conditions: for free fraction of p-CS: displacer 3 mM, median (IQR), baseline 14%
Procedure: as §1, §2
The free fraction of p-CS was measured using ultrafiltration experiments as described as described above.

fresh bovine blood = experiment: In vitro hemolysis assay; assay type: cell-based; conditions: 4 h, 37° C.; for hemolysis compared to control: 1-3 mmol/L
Procedure: as §3, §4, §5, §6, §7

[3] = Hemodialysis of fresh bovine blood (closed loop): removal of p-CS
Text: (§8) To assess the reality of the displacement and the increase of the removal of PBUT during a hemodialysis session, batches of 20 liters of fresh bovine blood were collected from the slaughterhouse under the authorization VC18731 (Oct. 4, 2018) issued from the Direction Départmentale de la Protection des Populations—Direction des Services Vétérinaires (DDPP-DSV, Lyon, France). Blood was heparinized at 3,750 UI/L with Sodium Heparin (Choay, Cheplapharm, France) and filtered on a nylon mesh. Two liters of blood (2 L) were spiked with 200 μmol/L of IS and gently stirred for 2 hours at 37° C. A 2-hour hemodialysis session was performed with Fresenius 5008 CorDiax hemodialysis generator (Fresenius, Sevres, France) and with a polysulfone-based hemodialysis membrane (FXHDF1000, 2.2 m^2, Fresenius Medical Care, Bad Homburg, Germany). Arterial and venous port were disposed in the blood batch to perform a closed loop circuit (see representation of the experimental device on FIG. 1). Blood and dialysate flow rates were set at 200 and 300 mL/min, respectively and dialysate temperature was set at 38° C. […] Blood samples were collected from the arterial lines at 0, 15, 30, 45, 60, 75, 90 and 120 minutes. Blood was centrifuged at 9,000 g for 2 minutes and plasma was stored at −20° C. […] At the beginning and the end of the experiment, hemolysis was estimated through the measurement of free hemoglobin in plasma as described above. Total protein concentration was measured according to the method of Lowry using bovine serum albumin as standard. Hematocrit was measured using a micromethod (Mondal H, Lotfollahzadeh S. Hematocrit. 2023 Jan. 2. In: StatPearls [Internet]. Treasure Island (FL): StatPearls Publishing; 2023). Briefly, 70 μL of blood was collected in a heparinized capillary tube. The end of the capillary tube was sealed with clay sealant and centrifuged at a rate of 9000 rpm for 5 min. The hematocrit level was read using a microhematocrit card reader.
(§9) 5-Hydroxyindole-2-carboxylic acid (5-HICA) was used as an internal standard in all experiments. Plasma samples were centrifugated at 17 000 rpm for 5 minutes. 125 μL of the supernatant was then pretreated using the Ostro Pass-through Sample Preparation Device (Waters, Saint-Quentin-en-Yvelines, France), including an in-well protein precipitation with acetonitrile (375 μL) in combination with a pass-through method that allows a good extraction. Eluants were evaporated to dryness in a gentle stream of nitrogen gas. […] Total PBUT concentrations were determined by a reverse phase HPLC with an isocratic flow at 0.2 ml/min. p-CS and IS were determined by fluorescence analysis (excitation λex: 270 nm; emission λem: 320 nm).

pigs = experiment: In vivo hemodialysis in anesthetized pigs: tolerance
[4] = In vivo hemodialysis in anesthetized pigs: removal of IS; conditions: octanoate vs saline, 2 h HD; P<0.05
[5] = Hemodialysis of fresh bovine blood (closed loop): removal of IS
Text: as §8, §9

[6] = In vivo hemodialysis in anesthetized pigs: removal of p-CS; conditions: octanoate vs saline, 2 h HD; P<0.05
bovine red blood cells = experiment: Hemodialysis of fresh bovine blood: hematocrit, hemolysis, plasma protein; conditions: continuous infusion of octanoate for 2 h
[7] = background art; cited from earlier work

SMILES: CCCCCCCCCC(=O)O [Decanoate, decanoic acid]
- free fraction of IS (human serum albumin [1]): 54% (52%-58%)
- hemolysis at 4 h, 3000 µM (In vitro hemolysis assay): 21.9%
- free fraction of p-CS (human serum albumin [2]): 59% (57%-63%)

SMILES: CCCCCCCCCCCC(=O)O [Dodecanoate, dodecanoic acid]
- free fraction of IS (human serum albumin [1]): 42% (41%-44%)
- concentration dependence of increase in free fraction of IS (human serum albumin [1]): dose dependently increased the free fraction of IS
- hemolysis at 4 h, 500 µM (In vitro hemolysis assay; 0.5 mmol/L): 15.3%
- hemolysis at 4 h, 3000 µM (In vitro hemolysis assay): 24.9%
- concentration triggering hemolysis (fresh bovine blood; bovine blood): higher than 0.25 mmol/L

SMILES: CCCCCC(=O)O [Hexanoate, hexanoic acid]
- free fraction of IS (human serum albumin [1]): 36% (34%-39%)
- concentration dependence of increase in free fraction of IS (human serum albumin [1]): only increased the free fraction of IS at the highest concentration tested
- hemolysis at 4 h (In vitro hemolysis assay): 3.6%
- hemolysis compared to control (fresh bovine blood): did not trigger any significant hemolysis
- free fraction of p-CS (human serum albumin [2]): 36% (34%-41%)
- concentration dependence of increase in free fraction of p-CS (human serum albumin [2]; highest concentration 3 mM): only increased the free fraction of p-CS at the highest concentration tested

SMILES: CCCCCCCC(=O)O [Octanoate, octanoic acid]
- fractional removal of p-CS ([3]; 2 h HD, octanoate infusion, control 38%, p<0.001): 88%
- half-life of p-CS in plasma ([3]; octanoate infusion, control 20.6 min): 12.8 min
- increase of fractional removal of p-CS ([3]; octanoate vs control, p<0.001): 2.3 folds
- toxin removal, pCS ([3]; per-dialytic infusion of octanoate, control 0.3 μmol/min): 1 μmol/min
- hemolysis (pigs; hematocrit and free hemoglobin, sodium octanoate i.v. during HD): no hemolysis
- tolerance (pigs; sodium octanoate 333 mmol/L i.v. at 18 mL/h, 2 h HD): Tolerance of all animals was good and no side effect was noticed
- hemolysis at 4 h (In vitro hemolysis assay): 2.3%
- hemolysis compared to control (fresh bovine blood): did not trigger any significant hemolysis
- increase of dialytic clearance of IS [4]: +113%
- fractional removal of IS ([5]; 2 h HD, octanoate infusion, control 36%, p<0.001): 91%
- half-life of IS in plasma ([5]; octanoate infusion, control 36.4 min): 15.2 min
- increase of fractional removal of IS ([5]; octanoate vs control, p<0.001): 2.5 folds
- toxin removal, IS ([5]; per-dialytic infusion of octanoate, control 1.5 μmol/min): 3.5 µmol/min
- increase of dialytic clearance of p-CS [6]: +101%
- change in hematocrit (bovine red blood cells): did not elicit any significant change in hematocrit
- change in hemolysis levels (bovine red blood cells): did not elicit any significant change in hematocrit or hemolysis levels

SMILES: CCCCC/C=C\C/C=C\CCCCCCCC(=O)O [linoleic acid]
- effect on dyslipidemia [7]: exacerbate dyslipidemia

SMILES: CCCCCCCC/C=C\CCCCCCCC(=O)O [oleic acid]
- effect on dyslipidemia [7]: exacerbate dyslipidemia
